Each molecule was assayed against T1, full-length human BTK (Homo sapiens, UniProt Q06187) (assay: Assay A: BTK IC50 Enzyme Assay (microfluidic off-chip mobility shift kinase assay)). Conditions: full-length human BTK, kinKDR peptide substrate, incubated 90 min at 27 C; read-out: Assay A (Time Dependent BTK Enzyme Assay IC50).
T1 construct: 2.5× stocks of full-length human BTK (08-080); purchased CarnaBio USA, Inc., Natick, Mass; 08-080
Assay type: biochemical
Procedure: Assay A: BTK IC50 Enzyme Assay
The following describes a microfluidic, off-chip mobility shift kinase assay used to measure inherent potency of compounds against BTK enzyme. Compounds described by embodiments of the present invention were assayed using this protocol and the data from the same is recorded in Table 2 within the column labeled: “Time Dependent BTK Enzyme Assay IC50”.
Stopped reactions were monitored at −2 PSI, −3000 V/−700 V in a LabChip 3000 plate reader from Caliper Life Sciences, a PerkinElmer Company (Hopkinton, Mass.), and the activity was measured by off-chip mobility shift assay measuring the charge/mass difference between substrate and product resulting from peptide phosphorilation. IC50 and efficacy were determined by plotting log [Inhibitor] vs. % Activity in GeneData Screener (Basel, Switzerland). […] I<1 uM and II>1 uM.

T1 sequence (Q06187 whole entry): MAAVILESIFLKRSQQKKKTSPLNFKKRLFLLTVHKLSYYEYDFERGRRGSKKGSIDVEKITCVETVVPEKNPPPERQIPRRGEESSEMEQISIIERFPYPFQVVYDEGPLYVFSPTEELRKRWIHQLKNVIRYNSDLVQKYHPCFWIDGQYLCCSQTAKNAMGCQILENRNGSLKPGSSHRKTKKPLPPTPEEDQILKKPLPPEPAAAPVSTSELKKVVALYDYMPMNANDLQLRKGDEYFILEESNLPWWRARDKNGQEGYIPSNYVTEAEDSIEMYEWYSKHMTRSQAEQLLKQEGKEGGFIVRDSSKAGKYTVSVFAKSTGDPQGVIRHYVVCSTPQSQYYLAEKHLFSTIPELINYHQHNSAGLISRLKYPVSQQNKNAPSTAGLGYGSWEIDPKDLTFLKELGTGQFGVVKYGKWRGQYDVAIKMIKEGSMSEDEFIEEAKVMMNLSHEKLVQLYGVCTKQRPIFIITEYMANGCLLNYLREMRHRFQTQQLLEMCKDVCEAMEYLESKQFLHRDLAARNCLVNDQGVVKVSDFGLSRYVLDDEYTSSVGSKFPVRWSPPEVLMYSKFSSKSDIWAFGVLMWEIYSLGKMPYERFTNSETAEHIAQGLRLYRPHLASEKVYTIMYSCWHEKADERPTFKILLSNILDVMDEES

Row | SMILES | IC50 [nM]
1 | C=CC(=O)N1CCC(c2cc(Oc3ccc(C(=O)Nc4ccccc4)cc3)c(C(N)=O)cn2)C1 (stereo not shown) [Compound 117] | 1000 to 5000
2 | C=CC(=O)NC1CC2(C1)CC(Nc1ncc(C(N)=O)c(Oc3ccc(Oc4ccccc4)cc3)n1)C2 (stereo not shown) [Compound 195, 2-((6-acrylamidospiro[3.3]heptan-2-yl)amino)-4-(4-phenoxyphenoxy)pyrimidine-5-carboxamide] | 1000 to 5000
3 | C/C=C/C(=O)N1CCC(c2cnc(Oc3ccc(Oc4cccc(F)c4)cc3)c(C(N)=O)c2)C1 (stereo not shown) [Compound 167, 5-[1-((E)-But-2-enoyl)-pyrrolidin-3-yl]-2-[4-(3-fluoro-phenoxy)-phenoxy]-nicotinamide] | 1000 to 5000
4 | C=CC(=O)N[C@H]1CCN(c2ncnc(C(N)=O)c2Cl)C1 [Compound 172, 6-((S)-3-Acryloylamino-pyrrolidin-1-yl)-5-chloro-pyrimidine-4-carboxylic acid amide] | > 5000
5 | C=CC(=O)N1CCCC(Nc2cnc(Oc3ccc(Oc4ccccc4)cc3)c(C(N)=O)c2)C1 (stereo not shown) [Compound 223, 5-(1-Acryloyl-piperidin-3-ylamino)-2-(4-phenoxy-phenoxy)-nicotinamide] | 100 to 1000
6 | C=CC(=O)N[C@H]1CCN(c2nc(Nc3ccc(N4CCC(F)(F)CC4)cc3)c(F)cc2C(N)=O)C1 [Compound 186, 2-((S)-3-Acryloylamino-pyrrolidin-1-yl)-6-[4-(4,4-difluoro-piperidin-1-yl)-phenylamino]-5-fluoro-nicotinamide formic acid] | 100 to 1000
7 | C=CC(=O)NC1CCN(c2cnc(Oc3ccc(Oc4cccc(F)c4)cc3)c(C(N)=O)c2)C1 (stereo not shown) [Compound 219, 5-(3-Acryloylamino-pyrrolidin-1-yl)-2-[4-(3-fluoro-phenoxy)-phenoxy]-nicotinamide] | 100 to 1000
8 | CN(C)C/C=C/C(=O)N[C@H]1CCN(c2ncc(C(N)=O)c(N)n2)C1 [Compound 145, 4-Amino-2-[(S)-3-((E)-4-dimethylamino-but-2-enoylamino)-pyrrolidin-1-yl]-pyrimidine-5-carboxylic acid amide] | 1000 to 5000
9 | C=CC(=O)N1CCC(c2cnc(C(N)=O)nc2)C1 (stereo not shown) [Compound 155] | > 5000
10 | NC(=O)c1ccc(C2CCN(C(=O)/C=C/CN3CCN(CCNC(=O)CCCC[C@@H]4SC[C@@H]5NC(=O)N[C@@H]54)CC3)CC2)nc1Oc1ccc(Oc2ccccc2)cc1 [Compound 86, 6-(1-((E)-4-(4-(2-(5-((3aS,4S,6aR)-2-oxohexahydro-1H-thieno[3,4-d]imidazol-4-yl)pentanamido)ethyl)piperazin-1-yl)but-2-enoyl)piperidin-4-yl)-2-(4-phenoxyphenoxy)nicotinamide] | 100 to 1000
11 | C=CC(=O)NCc1ccc(-c2ccc(C(N)=O)c(Oc3ccc(Oc4ccccc4)cc3)n2)s1 [Compound 160, 6-(5-(acrylamidomethyl)thiophen-2-yl)-2-(4-phenoxyphenoxy)nicotinamide] | > 5000
12 | C=CC(=O)N1CC2CN(c3cnc(Oc4ccc(Oc5ccccc5)cc4)c(C(N)=O)c3)CC2C1 (stereo not shown) [Compound 216, 5-(5-Acryloyl-hexahydro-pyrrolo[3,4-c]pyrrol-2-yl)-2-(4-phenoxy-phenoxy)-nicotinamide] | 100 to 1000
13 | C=CC(=O)N[C@H]1CCN(c2ccc(C(N)=O)c(NCCN3CCOCC3)n2)C1 [Compound 166, 6-((S)-3-Acryloylamino-pyrrolidin-1-yl)-2-(2-morpholin-4-yl-ethylamino)-nicotinamide] | > 5000
14 | C/C=C/C(=O)N1CC2CN(c3cnc(Oc4ccc(Oc5cccc(F)c5)cc4)c(C(N)=O)c3)CC2C1 (stereo not shown) [Compound 235, 5-[5-((E)-But-2-enoyl)-hexahydro-pyrrolo[3,4-c]pyrrol-2-yl]-2-[4-(3-fluoro-phenoxy)-phenoxy]-nicotinamide] | > 5000
15 | C=CC(=O)N[C@@H]1CCN(c2ccc(C(N)=O)c(N)n2)C1 [Compound 61, 6-((R)-3-Acryloylamino-pyrrolidin-1-yl)-2-amino-nicotinamide] | 1000 to 5000
16 | C=CC(=O)N[C@H]1CCN(c2ccc(C(N)=O)c(Oc3ccc(C(=O)N4CCOCC4)cc3)n2)C1 [Compound 101, 6-((S)-3-Acryloylamino-pyrrolidin-1-yl)-2-[4-(morpholine-4-carbonyl)-phenoxy]-nicotinamide] | > 5000
17 | C=CC(=O)N[C@H]1CCN(c2ccc(C(N)=O)c(NC3CCOCC3)n2)C1 [Compound 165, 6-((S)-3-Acryloylamino-pyrrolidin-1-yl)-2-(tetrahydro-pyran-4-ylamino)-nicotinamide] | > 5000
18 | C=CC(=O)N1CCC2(CCN(c3cnc(Oc4ccc(Oc5ccccc5)cc4)c(C(N)=O)c3)C2)C1 (stereo not shown) [Compound 224, 5-(7-Acryloyl-2,7-diaza-spiro[4.4]non-2-yl)-2-(4-phenoxy-phenoxy)-nicotinamide] | 100 to 1000
19 | C=CC(=O)N[C@H]1CCN(c2cc(Oc3cnn(Cc4ccccc4)c3)c(C(N)=O)cn2)C1 [Compound 115] | 100 to 1000

Next, values leading:

Row | IC50 [nM] | SMILES
20 | < 100 | C=CC(=O)N1C[C@@H]2C[C@H]1CN2c1ccc(C(N)=O)c(Oc2ccc(Oc3ccc(F)cc3F)cc2)n1 [Compound 66, 6-((1S,4S)-5-Acryloyl-2,5-diaza-bicyclo[2.2.1]hept-2-yl)-2-[4-(2,4-difluoro-phenoxy)-phenoxy]-nicotinamide]
21 | < 100 | C=CC(=O)N[C@H]1CCN(c2ccc(C(N)=O)c(Nc3ccc(C(=O)N(C)C)cc3)n2)C1 [Compound 26, 6-((S)-3-Acryloylamino-pyrrolidin-1-yl)-2-(4-dimethylcarbamoyl-phenylamino)-nicotinamide]
22 | < 100 | C=CC(=O)N1CCC(Nc2ccc(C(N)=O)c(Nc3cccc(C)c3)n2)C1 (stereo not shown) [Compound 50, 6-(1-Acryloyl-pyrrolidin-3-ylamino)-2-m-tolylamino-nicotinamide]
23 | < 100 | C=CC(=O)N1CC2CCC1CN2c1ncc(C(N)=O)c(Oc2ccc(Oc3ccccc3)cc2)n1 (stereo not shown) [Compound 225, 2-(5-acryloyl-2,5-diazabicyclo[2.2.2]octan-2-yl)-4-(4-phenoxyphenoxy)pyrimidine-5-carboxamide]
24 | 100 to 1000 | C=CC(=O)N1CCC2(CCN(c3cnc(Oc4ccc(Oc5cccc(F)c5)cc4)c(C(N)=O)c3)C2)C1 (stereo not shown) [Compound 233, 5-(7-acryloyl-2,7-diazaspiro[4.4]nonan-2-yl)-2-(4-(3-fluorophenoxy)phenoxy)nicotinamide]
25 | < 100 | C=CC(=O)N1CCC[C@@H](c2cnc(Oc3ccc(Oc4ccccc4)cc3)c(C(N)=O)c2)C1 [Compound 125, (S)-5-(1-acryloylpiperidin-3-yl)-2-(4-phenoxyphenoxy)nicotinamide]
26 | 100 to 1000 | C=CC(=O)N[C@H]1C[C@@H](Nc2ncc(C(N)=O)c(N)n2)C1 [Compound 143, 2-(3-Acryloylamino-cyclobutylamino)-4-amino-pyrimidine-5-carboxylic acid amide]
27 | 100 to 1000 | C=CC(=O)N1C[C@@H]2CCN(c3ncc(C(N)=O)c(Oc4ccc(Oc5ccccc5)cc4)n3)[C@@H]2C1 [Compound 203, 2-((3aS,6aS)-5-acryloylhexahydropyrrolo[3,4-b]pyrrol-1(2H)-yl)-4-(4-phenoxyphenoxy)pyrimidine-5-carboxamide]
28 | 100 to 1000 | C=CC(=O)N1CCN(c2ccc(C(N)=O)c(N(C)c3cccc(C)c3)n2)CC1 [Compound 58, 6-(4-Acryloyl-piperazin-1-yl)-2-(methyl-m-tolyl-amino)-nicotinamide]
29 | 100 to 1000 | C=CC(=O)N1CCC(Nc2ncc(C(N)=O)c(N)n2)C1 (stereo not shown) [Compound 141, 2-(1-Acryloyl-pyrrolidin-3-ylamino)-4-amino-pyrimidine-5-carboxylic acid amide]
30 | < 100 | C=CC(=O)N[C@H]1CCN(c2ccc(C(N)=O)c(Nc3ccc(N4CC(C)OC(C)C4)cc3)n2)C1 (stereo partly drawn) [Compound 33, 6-((S)-3-Acryloylamino-pyrrolidin-1-yl)-2-[4-(2,6-dimethyl-morpholin-4-yl)-phenylamino]-nicotinamide]
31 | < 100 | C=CC(=O)N1CCN(c2ccc(C(N)=O)c(Nc3cccnc3)n2)CC1 [Compound 43]
32 | < 100 | C=CC(=O)N[C@H]1CCN(c2ccc(C(N)=O)c(Nc3cncc(C)c3)n2)C1 [Compound 55, 6-((S)-3-Acryloylamino-pyrrolidin-1-yl)-2-(5-methyl-pyridin-3-ylamino)-nicotinamide]
33 | < 100 | C=CC(=O)N1CC=C(c2ccc(C(N)=O)c(Nc3ccc(C(=O)N4CCCCC4)cc3)n2)CC1 [Compound 28, 1′-Acryloyl-6-[4-(piperidine-1-carbonyl)-phenylamino]-1′,2′,3′,6′-tetrahydro-[2,4′]bipyridinyl-5-carboxylic acid amide]
34 | < 100 | C=CC(=O)N1CCC[C@H](c2cnc(Oc3ccc(Oc4ccccc4)cc3)c(C(N)=O)c2)C1 [Compound 124, (R)-5-(1-acryloylpiperidin-3-yl)-2-(4-phenoxyphenoxy)nicotinamide]
35 | < 100 | C=CC(=O)N[C@H]1CCN(c2ccc(C(N)=O)c(Nc3ccc(C(=O)N4CCCCC4)cc3)n2)C1 [Compound 21, 6-((S)-3-Acryloylamino-pyrrolidin-1-yl)-2-[4-(piperidine-1-carbonyl)-phenylamino]-nicotinamide]
36 | < 100 | C=CC(=O)N[C@H]1CCN(c2nc(Nc3ccc(N4CC(C)OC(C)C4)c(F)c3)c(C(N)=O)cc2F)C1 (stereo partly drawn) [Compound 181, 6-((S)-3-Acryloylamino-pyrrolidin-1-yl)-2-[4-(2,6-dimethyl-morpholin-4-yl)-3-fluoro-phenylamino]-5-fluoro-nicotinamide]
37 | < 100 | C=CC(=O)N[C@H]1CCN(c2ccc(C(N)=O)c(Nc3ccc(N4CCCCC4)nc3)n2)C1 [Compound 39, (S)-6-(3-acrylamidopyrrolidin-1-yl)-2-((6-(piperidin-1-yl)pyridin-3-yl)amino)nicotinamide]

Reference: US10329270B2, “Heteroaryl compounds as BTK inhibitors and uses thereof” (Merck Patent GmbH, priority 2013, dated 2019)
